Reference: publication PMC11763059, “GENI as an AMPK Activator Binds α and γ Subunits and Improves the Memory Dysfunction of Alzheimer’s Disease Mouse Models via Autophagy and Neuroprotection” (Antioxidants, 2025)

What was measured:
[1] = target: T1, AMPK-s1 (α subunit- D148A) (Rattus norvegicus, UniProt P54645+P80385, D159A); assay: SPR analysis, AMPK mutant s1; type: binding
T1 construct: His (N); made in house
Description: Mammalian AMPK subunits (His-α1, β1, and γ1) were cloned into a pET-3d vector, and protein expression and purification were similar to the literature.
SPR analysis was performed with a Biacore T200 instrument (GE Healthcare). Firstly, the purred His-tagged AMPK containing α1β1γ1 protein was captured onto an activated carboxymethylated 5 (CM5) chip using amine coupling to levels ranging from 4000 RU to 6000 RU. Secondly, GENI was dissolved in PBS-P buffer solution (0.05% (v/v) Tween 20 and PBS), and the concentration of GENI was 64 μM. Thirdly, the solution of GENI was diluted to 32 μM, 16 μM, 8 μM, 4 μM, 2 μM, 1 μM and 0.5 μM with PBS-P buffer solution. The sample was filtered by pumping through a […] membrane. A gradient concentration of GENI was injected at a flow rate of 30 μL/min in a running buffer (0.05% (v/v) Tween 20 and PBS). The data were analyzed with Biacore evaluation software (T200 version 2.0) and fitted to the 1:1 Langmuir binding model, and the kinetic parameters were derived.
The non-covalent interaction between drugs and proteins is an important way to exert drug efficacy, and its mode of action and binding affinity usually determine the utilization and biological activity of drugs. AMPK is a heterotrimer complex consisting of an α subunit containing the kinase domain and two regulatory subunits (β- and γ-). […]

[2] = target: T2, AMPK-s2 (α subunit- D157A) (Rattus norvegicus, UniProt P54645+P80385, D168A); assay: SPR analysis, AMPK mutant s2; type: binding
T2 construct: His (N); made in house

PI3K = assay: Drug affinity responsive target stability (DARTS), PI3K; type: binding; conditions: 0.1–100 μM GENI, protein: pronase 50:1
Description: (§1) Cells were lysed by RIPA lysis buffer, and the protein concentration was measured. The lysate was divided into six groups. Before incubation with protease (protein: pronase = 50:1 w/w for PI3K and AMPK detection, 5:1 for MAPK detection, 100:1 for p53 detection) for 25 min in 25 °C, 0.1–100 μM GENI was added to lysates and incubated for 2 h at room temperature. The samples were mixed with loading buffer and then separated on 8% SDS-PAGE for immunoblotting analysis.

MAPK = assay: Drug affinity responsive target stability (DARTS), MAPK; type: binding; conditions: 0.1–100 μM GENI, protein: pronase 5:1
Description: as §1

PC12 cells = assay: Total SOD enzymatic activity assay in PC12 cells; type: cell-based; conditions: compared with the H2O2-treated group
Description: To determine ROS levels in PC12 cells, we seeded 5 × 10^4 PC12 cells in each well of a 24-well plate. Cells were treated with RES (10 μM) or GENI (1, 3, and 10 μM) for 24 h, followed by 0.8 mM H2O2 for 1 h. DCFH-DA (2,7-dichlorodihydrofluorescein diacetate, final concentration, 10 μM) was then added to each well and incubated for 30 min. Cells were washed with PBS to remove extracellular DCFH-DA, and intercellular ROS was detected by using a SpectraMax M3 multimode microplate reader (Molecular Devices Corporation, San Jose, CA, USA) at an excitation wavelength of 488 nm and an emission wavelength of 525 nm. Meanwhile, DCF in PC12 cells was observed using a fluorescence microscope (HCS, Thermo Fisher, Science, Waltham, MA, USA). To detect malondialdehyde (MDA) content and total SOD enzymatic activities in PC12 cells, we seeded 2 × 10^6 PC12 cells in 60 mm dishes containing 5 mL of DMEM and cultured the cells for 24 h. PC12 cells were treated with RES (10 μM) or GENI (3 or 10 μM) for 24 h and then treated with 0.8 mM H2O2 for 1 h to determine the MDA content and total superoxide dismutase (SOD) activities. Cells were lysed and centrifuged. […] MDA quantification and total SOD activities were determined using MDA and SOD enzyme activity assay kits (Nanjing Jiancheng Bioengineering Institute, Nanjing, China) following the manufacturer’s instructions.

[3] = tested on: AMPK/mTOR/ULK1/LC3B signaling pathway; assay: Western blot of autophagy signaling pathway proteins; type: cell-based; conditions: after giving GENI; PC12 cells and mouse hippocampus and cerebral cortex (Extended Data Figure S3a–f)
Description: Western blot analysis for p-AMPK α, AMPK α, p-mTOR, mTOR, p-ULK1, ULK1, and LC3-I/II was conducted according to the information described in the materials and methods section of Supplementary Information.
1.3. Western blot analysis.
For PC12 cell samples, we seeded 2 × 10^6 PC12 cells in each 60 mm dish containing 5 mL of DMEM and incubated the dish for 24 h. For the dose-dependent experiment of GENI, GENI (1, 3 and 10 μM) was added to the dishes and incubated for a period of time (2 hours for p-AMPK α, AMPK α, 48 hours for p-mTOR, mTOR and p-ULK1, ULK1; 8 hours for LC3-I/II). Cells were then collected, lysed using RAPI lysis buffer and centrifuged. The supernatants of each group were used as protein samples. […]
The supernatants of each group were used as protein samples. For animal samples, an appropriate amount of tissue, such as cerebral cortex and hippocampus (50–100 mg), of each group was weighed, and we added lysis buffer with 1:9 ratios. After grinding and centrifuging, the supernatants of each group were used as protein samples. The protein concentration was measured with a BCA assay kit (Beijing Cowin Biotech Company, Beijing, China). Sodium dodecyl sulphate polyacrylamide gel electrophoresis (SDS-PAGE) was used to separate proteins (15 μg), which were transferred to PVDF membranes. The membrane was incubated with primary and secondary antibodies (Supplementary Table S5 for details). Antigens were visualised using a high-sensitivity chemiluminescence detection kit (Beijing Cowin Biotech Company, Beijing, China). Bands were quantitatively measured using ImageJ software (National Institutes of Health, Bethesda, MD, USA).

[4] = SPR, association rate, read-out: Ka

T1 sequence (P54645 13-559 D159A limits assumed): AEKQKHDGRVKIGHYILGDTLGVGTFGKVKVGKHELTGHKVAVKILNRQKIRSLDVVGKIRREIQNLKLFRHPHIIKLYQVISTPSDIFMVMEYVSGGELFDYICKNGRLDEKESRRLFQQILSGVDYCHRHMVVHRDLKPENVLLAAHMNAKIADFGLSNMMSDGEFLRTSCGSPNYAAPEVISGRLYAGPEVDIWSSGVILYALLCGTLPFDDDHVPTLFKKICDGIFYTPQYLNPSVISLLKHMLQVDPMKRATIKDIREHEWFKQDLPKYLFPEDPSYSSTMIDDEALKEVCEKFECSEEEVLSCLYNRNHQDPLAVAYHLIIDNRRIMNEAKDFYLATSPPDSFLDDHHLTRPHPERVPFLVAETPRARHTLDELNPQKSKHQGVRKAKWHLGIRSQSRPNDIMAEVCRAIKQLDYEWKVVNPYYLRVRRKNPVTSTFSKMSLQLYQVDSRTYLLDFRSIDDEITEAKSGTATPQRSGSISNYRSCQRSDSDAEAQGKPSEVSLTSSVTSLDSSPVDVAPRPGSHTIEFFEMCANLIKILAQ
T1 sequence (P80386 whole entry partner): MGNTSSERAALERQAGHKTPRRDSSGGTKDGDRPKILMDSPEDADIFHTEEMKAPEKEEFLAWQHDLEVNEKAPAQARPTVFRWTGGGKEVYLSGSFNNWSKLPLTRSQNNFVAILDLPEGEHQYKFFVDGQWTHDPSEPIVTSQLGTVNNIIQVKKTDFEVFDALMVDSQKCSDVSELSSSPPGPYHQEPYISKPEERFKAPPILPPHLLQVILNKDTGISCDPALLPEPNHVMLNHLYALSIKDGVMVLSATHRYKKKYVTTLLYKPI
T1 sequence (P80385 whole entry): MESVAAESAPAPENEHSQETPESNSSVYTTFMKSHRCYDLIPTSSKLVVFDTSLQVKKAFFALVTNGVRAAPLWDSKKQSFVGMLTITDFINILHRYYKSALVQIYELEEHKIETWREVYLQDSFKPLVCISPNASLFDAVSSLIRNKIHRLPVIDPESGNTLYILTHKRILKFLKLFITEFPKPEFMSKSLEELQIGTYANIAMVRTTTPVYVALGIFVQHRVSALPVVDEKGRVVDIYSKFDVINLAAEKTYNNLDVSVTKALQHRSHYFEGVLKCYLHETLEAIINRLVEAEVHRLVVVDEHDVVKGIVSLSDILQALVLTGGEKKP
T2 sequence (P54645 13-559 D168A limits assumed): as the sequence (P54645 13-559 D159A limits assumed) above, with A147D, D156A counted along it
T2 sequence (P80386 whole entry partner): as the sequence (P80386 whole entry partner) above
T2 sequence (P80385 whole entry): as the sequence (P80385 whole entry) above

SMILES: CC(C)CCOC(=O)C1=CO[C@@H](O[C@@H]2O[C@H](CO)[C@@H](O)[C@H](O)[C@H]2O)C2C(CO)=CCC12 (some centres unmarked) [GENI, Geniposidic 4-isoamyl ester]
- dose-dependent response in SPR ([1]; D148 replaced with A148): No significant dose-dependent response
- kon [1, 4]: 9360 M⁻¹ s⁻¹
- dose-dependent response in SPR ([2]; D157 replaced with A157): No significant dose-dependent response
- kon [2, 4]: 9120 M⁻¹ s⁻¹
- stability of PI3K against pronase (DARTS) (PI3K): no obvious effect
- stability of MAPK against pronase (DARTS) (MAPK): dramatically enhanced the stability
- total SOD activity (PC12 cells): increased
- LC3B at protein level [3]: increase
- phosphorylate-AMPK at protein level [3]: increase
- phosphorylate-ULK1 at protein level [3]: increase
- phosphorylate-mTOR at protein level [3]: reduction
